The subject of one series is AhR. Nature of the series: Lentiviral AhR reporter (MMTV-DRE dsRed / luciferase) in MEPs. The settings on record: day 30 MEPs, FICZ increased to 0.4 μM. The class given is cell-based, human.
The next series has as its system iPSC-derived MEPs. Description: Growth / expansion of MEP cultures (manual counts, trypan blue exclusion). The class given is cell-based, human. Here is the method: Plots were gated first in FSC vs. SSC and then from that population for PI ‘ and PE Hoechst’. […] (B) Representative phase contrast images of MEP population+FICZ. (C) Growth curve of day 15 MEPs+/−[…] FICZ. Cells were counted manually using trypan blue exclusion. Graphical data and the associated statistics are the result of three independent experiments per group.
High passage iPSCs were plated onto matrigel coated 6-well plates in iPSC media conditioned on iMEFs for 24 hours and supplemented with 2 ng/ml Rho Kinase Inhibitor and 20 ng/ml bFGF. After two days, iPSC media was replaced with Mesoderm DO-1 media: RPMI (Invitrogen A1049101) supplemented with 5 ng/mlhBMP-4 (R&D 314-BP-010), 50 ng/ml hVEGF (R&D 293-VE-010), 25 ng/mlhWnt3a (R&D 287-TC-500) and 10% KOSR. At Day 2, Mesoderm DO-1 media was replaced with Mesoderm D2 media: RPMI supplemented with 5 ng/ml hBMP-4, 50 ng/mlhVEGF, 20 ng/ml bFGF and 10% KOSR. Mesoderm D3 media consisted of the following: StemPro 34 (Invitrogen 10639011), 5 ng/ml hBMP-4, 50 ng/mlhVEGF, and 20 ng/ml bFGF. Mesoderm media for days 4 and 5 consisted of: StemPro 34, 15 ng/mlhVEGF, and 5 ng/ml bFGF. Day 6 mesoderm media: 74% IMDM (Invitrogen 12330061), 24% Hams F12 (Mediatech 10-080-CV), 1% B27 supplement (Invitrogen 12587-010), 0.5% N2-supplement (Invitrogen 17502-048), 0.5% BSA (Sigma A3059), 50 ng/ml hVEGF, 100 ng/mlbFGF, 100 ng/ml hSCF (R&D 255-SC-010), 25 ng/ml hFlt3 Ligand (R&D 308-FKN-005). Day 7 media: 74% IMDM, 24% Hams F12, 1% B27 supplement, 0.5% N2-supplement, 0.5% BSA, 50 ng/ml hVEGF, 100 ng/ml bFGF, 100 ng/ml hSCF, 25 ng/ml hFlt3 Ligand, 50 ng/ml hTPO (Genentech G140BT), 10 ng/ml IL-6 (R&D 206-IL-010), 0.5 U/ml hEPOgen and 0.2 uM 6-formylindolo[3,2-b]carbazole (FICZ) (Santa Cruz SC300019). After Day 7, 0.5 ml of Day 7 media was added to the culture daily without aspirating the media from the previous day. All base media mixes included 2 mM L-Glutamine (Invitrogen 25030081), 4×10^-4M Monothioglycerol (Sigma M1753), 100 ug/ml Primocin, and 50 ug/ml Ascorbic Acid. Cells in suspension were collected and assayed at Days 10-13 or split for long-term culture.
(§1) 6-formylindolo[3,2-b]carbazole (FICZ), an AHR small molecule agonist, and CH223191, an AHR competitive inhibitor were used for these assays. CH223191 was added to mesoderm cultures at Day 6 at 5 μM (lx) and 2.504 (0.5×). 0.2 μM FICZ was added to cultures at Day 7 and media was added daily. DMSO was used as a vehicle control.

In the next series the test system is day 30 MEPs. Description: EDU incorporation proliferation assay. The conditions noted are these: versus untreated cells. It counts as cell-based, human. The text has this:
In a subsequent experiment, […] (EDU) incorporation in day 30 MEPs was used to compare proliferation of FICZ-treated MEPS and control untreated MEPs, EDU is a labeling chemical that intercolates into the DNA of a cell and allows for the explicit tracking of proliferation.

The subject of series [1] is AhR (CYP1B1 target gene expression) in MEPs. Nature of the series: Quantitative RT-PCR of AhR target gene CYP1B1 in MEPs. It counts as cell-based, human. The procedure: as §1
(§2) RNA was extracted using the RNeasy kit (Qiagen) according to the manufacturer's instructions and DNase treated using the DNA-free kit (Ambion AM1906). Reverse transcription into cDNA was performed using the High Capacity cDNA Reverse Transcription Kit (Applied Biosystems 4368814). Quantitative (real time) PCR amplification of cDNA was performed using Taqman probes for AHR (Hs00169233 ml), CYP1B1 (Hs002382916 sl), HBA (Hs00361191 gl), HBB (Hs00758889 sl), HBG (Hs01629437 sl), vWF (Hs00169795 ml), PF4 (Hs00427220 gl), NF-E2 (Hs00232351 ml) and CD62P (Hs00927900 ml) and run on the Applied Biosystems StepOne machine. Relative gene expression was normalized to B-actin (Hs99999903 ml).
To characterize AhR expression and functionality in both undifferentiated iPSCs and directly differentiated MEPs, AhR protein levels were determined via Western blot in these populations. […] To test this hypothesis, the ability of FICZ to induce a prototypic AhR-target gene, CYPIB1, in iPSCs or, as a positive control, MEPs was assessed by quantitative RT-PCR.

In series [2] the test system is AhR (CYP1B1 target gene expression). Description: In vivo CYP1B1 target gene expression in liver and spleen (quantitative RT-PCR). Details: species or system mouse. The conditions noted are these: after 3 weeks of FICZ. The procedure:
as §2
C57B16 mice were injected daily intraperitoneally with FICZ suspended in vegetable oil using a weekly dose escalation scheme (Week 1: 1 mg/kg; Week 2: 2 mg/kg; Week 3: 4 mg/kg). Blood cell counts were assayed by Hemavet quantification of peripheral blood bleeds, at all 3 time points (Day 7, 14, and 21). Following the 3 week time point, mice were sacrificed and livers and spleens harvested for quantitative RT-PCR analyses.
To determine if FICZ treatment or whole animals would affect RBC or platelet production, C57B16 mice were injected daily intraperitoneally with FICZ suspended in vegetable oil using a weekly dose escalation scheme (Week 1: 1 mg/kg; Week 2: 2 mg/kg; Week 3: 4 mg/kg). […]

Consider `O=Cc1c2c(cc3c1=Nc1ccccc1-3)=Nc1ccccc1-2` [FICZ, 6-formylindolo[3,2-b]carbazole], for which the DsRed reporter expression result in the series with AhR is “significant increase”. Moreover, in the series with iPSC-derived MEPs (after addition of FICZ to cultures), the “expansion of MEPs (cell number)” value is listed as “from a few thousand to a billion cells in a few weeks”. The “growth of MEPs” value in the series with iPSC-derived MEPs (day 15 MEPs +/-0.2 μm FICZ, 2 week growth period, versus untreated) was “logarithmic expansion”. In addition, in the series with iPSC-derived MEPs (iPSC-derived MEPs under AhR agonism), the “time cells could be cultured” value is reported as more than 120 days. Moreover, the “proliferation by EDU incorporation” value with day 30 MEPs is on record as “far more proliferative than untreated cells”. Further, in series [1] (Day 15 MEPs, with vs. without FICZ, normalized to β-actin), the CYP1B1 expression entry is reported as “statistically significant increases”. For the same compound, in series [1] (MEP, normalized to GAPDH), the “responsiveness to AhR agonist (CYP1B1 RT-PCR)” value is given as “responsive”. Further, in series [2], the “CYP1B1 target gene expression in liver” value is on record as “robust upregulation” and the “CYP1B1 target gene expression in spleen” value is “robust upregulation”.

For the origin of these results see patent publication US12173320B2, “Production of red blood cells and platelets from stem cells” (BOSTON MEDICAL CENTER CORPORATION, priority 2012, dated 2024).
